Where a SMILES comes first, the peptide text is derived from it.
Target: human KISS1R (Homo sapiens, UniProt Q969F8)
Assay: Receptor binding assay, competition against [125I]KP-54 in CHO-KISS1R membranes
Details: SEM

Chain of human KISS1R (Q969F8 whole entry): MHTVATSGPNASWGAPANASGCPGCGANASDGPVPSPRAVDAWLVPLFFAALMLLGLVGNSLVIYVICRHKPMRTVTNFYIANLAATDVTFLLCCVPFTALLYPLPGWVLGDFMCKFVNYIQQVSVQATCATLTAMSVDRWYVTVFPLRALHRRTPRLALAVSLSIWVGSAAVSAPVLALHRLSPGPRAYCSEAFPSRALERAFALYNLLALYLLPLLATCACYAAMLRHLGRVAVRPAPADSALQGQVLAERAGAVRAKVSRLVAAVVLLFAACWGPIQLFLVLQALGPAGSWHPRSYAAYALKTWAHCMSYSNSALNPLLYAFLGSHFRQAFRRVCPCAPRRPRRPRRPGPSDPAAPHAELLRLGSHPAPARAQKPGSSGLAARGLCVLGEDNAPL

## CC(C)C[C@H](NC(=O)CNC(=O)[C@H](Cc1ccccc1)NC(=O)[C@H](CO)NC(=O)[C@H](CC(N)=O)NC(=O)[C@H](Cc1c[nH]c2ccccc12)NC(=O)[C@H](CC(N)=O)NC(=O)[C@H](C)N)C(=O)N[C@@H](CCCNC(=N)N)C(=O)N[C@@H](Cc1ccccc1)C(N)=O [ANA1] (H-ANWNSFGLRF-NH2)
  IC50: 23.2 nM

## CC(C)C[C@H](NC(=O)CNC(=O)[C@H](Cc1ccccc1)NC(=O)[C@H](CO)NC(=O)[C@H](CC(N)=O)NC(=O)[C@H](Cc1c[nH]c2ccccc12)NC(=O)[C@H](C)NC(=O)[C@@H](N)Cc1ccc(O)cc1)C(=O)N[C@@H](CCCNC(=N)N)C(=O)N[C@@H](Cc1ccccc1)C(N)=O [ANA2] (H-YAWNSFGLRF-NH2)
  IC50: 145 nM

## CC(C)C[C@H](NC(=O)CNC(=O)[C@H](Cc1ccccc1)NC(=O)[C@H](CO)NC(=O)[C@H](CC(N)=O)NC(=O)[C@H](C)NC(=O)[C@H](CC(N)=O)NC(=O)[C@@H](N)Cc1ccc(O)cc1)C(=O)N[C@@H](CCCNC(=N)N)C(=O)N[C@@H](Cc1ccccc1)C(N)=O [ANA3] (H-YNANSFGLRF-NH2)
  IC50: 2.7 nM

## CC(C)C[C@H](NC(=O)CNC(=O)[C@H](Cc1ccccc1)NC(=O)[C@H](CO)NC(=O)[C@H](C)NC(=O)[C@H](Cc1c[nH]c2ccccc12)NC(=O)[C@H](CC(N)=O)NC(=O)[C@@H](N)Cc1ccc(O)cc1)C(=O)N[C@@H](CCCNC(=N)N)C(=O)N[C@@H](Cc1ccccc1)C(N)=O [ANA4] (H-YNWASFGLRF-NH2)
  IC50: 43.5 nM

## CC(C)C[C@H](NC(=O)CNC(=O)[C@H](Cc1ccccc1)NC(=O)[C@H](C)NC(=O)[C@H](CC(N)=O)NC(=O)[C@H](Cc1c[nH]c2ccccc12)NC(=O)[C@H](CC(N)=O)NC(=O)[C@@H](N)Cc1ccc(O)cc1)C(=O)N[C@@H](CCCNC(=N)N)C(=O)N[C@@H](Cc1ccccc1)C(N)=O [ANA5] (H-YNWNAFGLRF-NH2)
  IC50: 0.8 nM

## CC(C)C[C@H](NC(=O)CNC(=O)[C@H](C)NC(=O)[C@H](CO)NC(=O)[C@H](CC(N)=O)NC(=O)[C@H](Cc1c[nH]c2ccccc12)NC(=O)[C@H](CC(N)=O)NC(=O)[C@@H](N)Cc1ccc(O)cc1)C(=O)N[C@@H](CCCNC(=N)N)C(=O)N[C@@H](Cc1ccccc1)C(N)=O [ANA6] (H-YNWNSAGLRF-NH2)
  IC50: 110 nM

## CC(C)C[C@H](NC(=O)[C@H](C)NC(=O)[C@H](Cc1ccccc1)NC(=O)[C@H](CO)NC(=O)[C@H](CC(N)=O)NC(=O)[C@H](Cc1c[nH]c2ccccc12)NC(=O)[C@H](CC(N)=O)NC(=O)[C@@H](N)Cc1ccc(O)cc1)C(=O)N[C@@H](CCCNC(=N)N)C(=O)N[C@@H](Cc1ccccc1)C(N)=O [ANA7] (H-YNWNSFALRF-NH2)
  IC50: 4.6 nM

## C[C@H](NC(=O)CNC(=O)[C@H](Cc1ccccc1)NC(=O)[C@H](CO)NC(=O)[C@H](CC(N)=O)NC(=O)[C@H](Cc1c[nH]c2ccccc12)NC(=O)[C@H](CC(N)=O)NC(=O)[C@@H](N)Cc1ccc(O)cc1)C(=O)N[C@@H](CCCNC(=N)N)C(=O)N[C@@H](Cc1ccccc1)C(N)=O [ANA8] (H-YNWNSFGARF-NH2)
  IC50: 77.4 nM

## CC(C)C[C@H](NC(=O)CNC(=O)[C@H](Cc1ccccc1)NC(=O)[C@H](CO)NC(=O)[C@H](CC(N)=O)NC(=O)[C@H](Cc1c[nH]c2ccccc12)NC(=O)[C@H](CC(N)=O)NC(=O)[C@@H](N)Cc1ccc(O)cc1)C(=O)N[C@@H](C)C(=O)N[C@@H](Cc1ccccc1)C(N)=O [ANA9] (H-YNWNSFGLAF-NH2)
  IC50: 42.3 nM

## CC(C)C[C@H](NC(=O)CNC(=O)[C@H](Cc1ccccc1)NC(=O)[C@H](CO)NC(=O)[C@H](CC(N)=O)NC(=O)[C@H](Cc1c[nH]c2ccccc12)NC(=O)[C@H](CC(N)=O)NC(=O)[C@@H](N)Cc1ccccc1)C(=O)N[C@@H](CCCNC(=N)N)C(=O)N[C@@H](Cc1ccccc1)C(N)=O [ANA11] (H-FNWNSFGLRF-NH2)
  IC50: 3.5 nM

## CC(C)C[C@H](NC(=O)CNC(=O)[C@H](Cc1ccccc1)NC(=O)[C@H](CO)NC(=O)[C@H](CC(N)=O)NC(=O)[C@H](Cc1c[nH]c2ccccc12)NC(=O)[C@H](CC(=O)O)NC(=O)[C@@H](N)Cc1ccc(O)cc1)C(=O)N[C@@H](CCCNC(=N)N)C(=O)N[C@@H](Cc1ccccc1)C(N)=O [ANA12] (H-YDWNSFGLRF-NH2)
  IC50: 29.1 nM

## CC(C)C[C@H](NC(=O)CNC(=O)[C@H](Cc1ccccc1)NC(=O)[C@H](CO)NC(=O)[C@H](CC(=O)O)NC(=O)[C@H](Cc1c[nH]c2ccccc12)NC(=O)[C@H](CC(N)=O)NC(=O)[C@@H](N)Cc1ccc(O)cc1)C(=O)N[C@@H](CCCNC(=N)N)C(=O)N[C@@H](Cc1ccccc1)C(N)=O [ANA13] (H-YNWDSFGLRF-NH2)
  IC50: 140 nM

## CC(C)C[C@H](NC(=O)CNC(=O)[C@H](Cc1ccccc1)NC(=O)[C@@H](NC(=O)[C@H](CC(N)=O)NC(=O)[C@H](Cc1c[nH]c2ccccc12)NC(=O)[C@H](CC(N)=O)NC(=O)[C@@H](N)Cc1ccc(O)cc1)[C@@H](C)O)C(=O)N[C@@H](CCCNC(=N)N)C(=O)N[C@@H](Cc1ccccc1)C(N)=O [ANA14] (H-YNWNTFGLRF-NH2)
  IC50: 2.3 nM

## CC(C)C[C@H](NC(=O)CNC(=O)[C@H](Cc1ccc(O)cc1)NC(=O)[C@H](CO)NC(=O)[C@H](CC(N)=O)NC(=O)[C@H](Cc1c[nH]c2ccccc12)NC(=O)[C@H](CC(N)=O)NC(=O)[C@@H](N)Cc1ccc(O)cc1)C(=O)N[C@@H](CCCNC(=N)N)C(=O)N[C@@H](Cc1ccccc1)C(N)=O [ANA15] (H-YNWNSYGLRF-NH2)
  IC50: 87.5 nM

## CC[C@H](C)[C@H](NC(=O)CNC(=O)[C@H](Cc1ccccc1)NC(=O)[C@H](CO)NC(=O)[C@H](CC(N)=O)NC(=O)[C@H](Cc1c[nH]c2ccccc12)NC(=O)[C@H](CC(N)=O)NC(=O)[C@@H](N)Cc1ccc(O)cc1)C(=O)N[C@@H](CCCNC(=N)N)C(=O)N[C@@H](Cc1ccccc1)C(N)=O [ANA16] (H-YNWNSFGIRF-NH2)
  IC50: 39.9 nM

## CC(C)C[C@H](NC(=O)CNC(=O)[C@H](Cc1ccccc1)NC(=O)[C@H](CO)NC(=O)[C@H](CC(N)=O)NC(=O)[C@H](Cc1c[nH]c2ccccc12)NC(=O)[C@H](CC(N)=O)NC(=O)[C@@H](N)Cc1ccc(O)cc1)C(=O)N[C@@H](CCCCN)C(=O)N[C@@H](Cc1ccccc1)C(N)=O [ANA17] (H-YNWNSFGLKF-NH2)
  IC50: 9.8 nM

## CC(C)C[C@H](NC(=O)CNC(=O)[C@H](Cc1ccccc1)NC(=O)[C@H](CO)NC(=O)[C@H](CC(N)=O)NC(=O)[C@H](Cc1c[nH]c2ccccc12)NC(=O)[C@H](CC(N)=O)NC(=O)[C@@H](N)Cc1ccc(O)cc1)C(=O)N[C@@H](CCCNC(=N)N)C(=O)N[C@@H](Cc1c[nH]cn1)C(N)=O [ANA18] (H-YNWNSFGLRH-NH2)
  IC50: 378 nM

## CC(C)C[C@H](NC(=O)CNC(=O)[C@H](Cc1ccccc1)NC(=O)[C@H](CO)NC(=O)[C@H](CC(N)=O)NC(=O)[C@H](Cc1c[nH]c2ccccc12)NC(=O)[C@H](CC(N)=O)NC(=O)[C@H](N)Cc1ccc(O)cc1)C(=O)N[C@@H](CCCNC(=N)N)C(=O)N[C@@H](Cc1ccccc1)C(N)=O [ANA19]
  IC50: 3.6 nM

## CC(C)C[C@H](NC(=O)CNC(=O)[C@@H](Cc1ccccc1)NC(=O)[C@H](CO)NC(=O)[C@H](CC(N)=O)NC(=O)[C@H](Cc1c[nH]c2ccccc12)NC(=O)[C@H](CC(N)=O)NC(=O)[C@@H](N)Cc1ccc(O)cc1)C(=O)N[C@@H](CCCNC(=N)N)C(=O)N[C@@H](Cc1ccccc1)C(N)=O [ANA20]
  IC50: 253 nM

## CC(C)C[C@H](NC(=O)CNC(=O)[C@H](Cc1ccccc1)NC(=O)[C@H](CO)NC(=O)[C@H](CC(N)=O)NC(=O)[C@H](Cc1c[nH]c2ccccc12)NC(=O)[C@H](CC(N)=O)NC(=O)[C@@H](N)Cc1ccc(O)cc1)C(=O)N[C@@H](CCCNC(=N)N)C(=O)N[C@H](Cc1ccccc1)C(N)=O [ANA21]
  IC50: 447 nM

## CC(C)C[C@H](NC(=O)CNC(=O)[C@H](Cc1ccccc1)NC(=O)[C@H](CO)NC(=O)[C@H](CC(N)=O)NC(=O)[C@H](Cc1c[nH]c2ccccc12)NC(=O)[C@H](CC(N)=O)NC(=O)[C@@H](N)Cc1ccc(O)cc1)C(=O)N[C@@H](CCCNC(=N)N)C(=O)N[C@@H](Cc1ccccc1)C(N)=O [KP-10, kisspeptin-10, reference compound]
  IC50: 1 nM
